From patent publication US20260258050A1, “IMMUNOMODULATOR” (HITGEN INC., priority 2023, published 2026)

Experiments:
Human IL-17AF = target: T1, Human IL-17AF (Homo sapiens, UniProt Q16552+Q96PD4); experiment: IL-17AF ELISA (competitive ELISA, IL-17AF/IL-17Ra receptor-ligand binding); details: human IL-17AF coated plate, human IL-17Ra, read-out: IC50, inhibitory activity of compounds on human IL-17AF
T1 construct: purchased Sino Biological Inc. CT047-H08H
T1 sequence (Q16552 24-155): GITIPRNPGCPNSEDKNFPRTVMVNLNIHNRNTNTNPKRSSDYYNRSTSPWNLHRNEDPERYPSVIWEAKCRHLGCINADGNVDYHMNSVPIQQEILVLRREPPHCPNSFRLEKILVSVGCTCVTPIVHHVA
T1 sequence (Q96PD4 31-163): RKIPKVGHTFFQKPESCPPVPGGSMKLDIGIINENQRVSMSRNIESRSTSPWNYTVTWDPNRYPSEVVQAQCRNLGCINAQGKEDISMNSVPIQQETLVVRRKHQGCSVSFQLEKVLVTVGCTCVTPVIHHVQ
Procedure, shortened: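 Plates coated with 0.625 μg/ml human IL-17AF in PBS pH 7.4 (37 °C, 30 min) and milk-blocked. Compounds pre-incubated with coated IL-17AF for 10 min at 25 °C, then IL-17Ra added (as 100 nM solution) for 30 min. Bound receptor detected by anti-Fc HRP/TMB at 450 nm; IC50 from variable-slope normalized fit versus DMSO control and blank.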

Human IL-17A = target: T2, Human IL-17A (Homo sapiens, UniProt Q16552); experiment: Inhibition of human IL-17A protein-induced GROα/CXCL1 production in HT-29 cells; assay type: cell-based; design: purchased R&D 317-ILB; host or cells: added exogenously to HT-29 cells; details: 30 ng/mL human IL-17A protein, 48 h, GROα in supernatant by ELISA kit, read-out: Inhibitory IC50 of compounds on HT-29 cell GROα/CXCL1
T2 sequence (Q16552 20-155 limits assumed): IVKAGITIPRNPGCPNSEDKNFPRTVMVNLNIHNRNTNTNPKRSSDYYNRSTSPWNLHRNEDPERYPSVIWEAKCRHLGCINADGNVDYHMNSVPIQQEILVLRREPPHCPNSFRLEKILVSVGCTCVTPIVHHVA
Procedure, shortened: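 Compound dilutions were preincubated 1 h at 37 °C with 30 ng/mL human IL-17A, then added to HT-29 cells (5×10^4/well) for 48 h at 37 °C. GROα in supernatant quantified by ELISA; IC50 for inhibition of its production. Positive control: IL-17A antibody at […].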

Row | IC50 (Human IL-17AF) [nM] | IC50 (Human IL-17A) [nM] | SMILES
1 | ≤ 100 | ≤ 100 | CCn1nccc1C(=O)N[C@H](C(=O)Nc1ccc2c(c1)COCCc1n[nH]c(C)c1-2)C(C1CC1)C1CC1 [compound 3]
2 | 100 to 500 | 100 to 500 | Cc1[nH]nc2c1-c1ccc(NC(=O)[C@@H](NC(=O)c3ccnn3C3CC3)C(C3CC3)C3CC3)cc1COCC2 [compound 6]
3 | 100 to 500 | ≤ 100 | Cc1[nH]nc2c1-c1cnc(NC(=O)[C@@H](NC(=O)c3ccnn3C[C@@H]3C[C@H]3F)C(C3CC3)C3CC3)cc1COCC2 [compound 125]
4 | 100 to 500 | ≤ 100 | Cc1[nH]nc2c1-c1cc(F)c(NC(=O)[C@@H](NC(=O)c3ccnn3C(C)C)C(C3CC3)C3CC3)cc1CN(C)C(=O)C2 [compound 132]
5 | 100 to 500 | 100 to 500 | CCn1nccc1C(=O)N[C@H](C(=O)Nc1cc2c(cc1F)-c1c(n[nH]c1C)CC(=O)N(C)C2)C(C1CC1)C1CC1 [compound 133]
6 | ≤ 100 | ≤ 100 | Cc1[nH]nc2c1-c1cc(F)c(NC(=O)[C@@H](NC(=O)c3ccnn3C(C)C)C(C3CC3)C3CC3)cc1CN(C1CC1)C(=O)C2 [compound 136]
7 | ≤ 100 | ≤ 100 | CCN1Cc2cc(NC(=O)[C@@H](NC(=O)c3ccnn3C(C)C)C(C3CC3)C3CC3)c(F)cc2-c2c(n[nH]c2C)CC1=O [compound 142]
8 | ≤ 100 | ≤ 100 | CCN1Cc2cc(NC(=O)[C@@H](NC(=O)c3ccnn3CC)C(C3CC3)C3CC3)c(F)cc2-c2c(n[nH]c2C)CC1=O [compound 143]
9 | 100 to 500 | ≤ 100 | Cc1[nH]nc2c1-c1cc(F)c(NC(=O)[C@@H](NC(=O)c3ccnn3C(C)C)C(C3CC3)C3CC3)cc1CN(CC(F)F)C(=O)C2 [compound 144]
10 | ≤ 100 | ≤ 100 | CCn1nccc1C(=O)N[C@H](C(=O)Nc1cc2c(cc1F)-c1c(n[nH]c1C)CC(=O)N(CC(F)F)C2)C(C1CC1)C1CC1 [compound 145]
11 | 100 to 500 | ≤ 100 | Cc1[nH]nc2c1-c1cc(F)c(NC(=O)[C@@H](NC(=O)c3ccnn3C(C)C)C(C3CC3)C3CC3)cc1CN(CC(C)(F)F)C(=O)C2 [compound 148]
12 | ≤ 100 | ≤ 100 | CCn1nccc1C(=O)N[C@H](C(=O)Nc1cc2c(cc1F)-c1c(n[nH]c1C)CC(=O)N(CC(C)(F)F)C2)C(C1CC1)C1CC1 [compound 149]
13 | ≤ 100 | ≤ 100 | Cc1[nH]nc2c1-c1cc(F)c(NC(=O)[C@@H](NC(=O)c3ccnn3C(C)C)C(C3CC3)C3CC3)cc1CN(C(C)C)C(=O)C2 [compound 150]
14 | ≤ 100 | ≤ 100 | CCn1nccc1C(=O)N[C@H](C(=O)Nc1cc2c(cc1F)-c1c(n[nH]c1C)CC(=O)N(C(C)C)C2)C(C1CC1)C1CC1 [compound 151]
15 | 100 to 500 | ≤ 100 | Cc1[nH]nc2c1-c1cc(F)c(NC(=O)[C@@H](NC(=O)c3ccnn3C(C)C)C(C3CC3)C3CC3)cc1CN(CC(F)(F)F)C(=O)C2 [compound 152]
16 | ≤ 100 | ≤ 100 | Cc1[nH]nc2c1-c1cc(F)c(NC(=O)[C@@H](NC(=O)c3ccnn3C(C)C)C(C3CC3)C3CC3)cc1CN(CC1CC1)C(=O)C2 [compound 153]
17 | 100 to 500 | 100 to 500 | CCN1CCc2n[nH]c(C)c2-c2cc(F)c(NC(=O)[C@@H](NC(=O)c3ccnn3C(C)C)C(C3CC3)C3CC3)cc2C1 [compound 156]
18 | 100 to 500 | ≤ 100 | Cc1[nH]nc2c1-c1cc(F)c(NC(=O)[C@@H](NC(=O)c3ccnn3C(C)C)C(C3CC3)C3CC3)cc1CN(CC(F)F)CC2 [compound 158]
19 | ≤ 100 | ≤ 100 | CCn1nccc1C(=O)N[C@H](C(=O)Nc1cc2c(cc1F)-c1c(n[nH]c1C)CCN(CC(F)F)C2)C(C1CC1)C1CC1 [compound 159]
20 | 100 to 500 | ≤ 100 | Cc1[nH]nc2c1-c1cc(F)c(NC(=O)[C@@H](NC(=O)c3ccnn3C(C)C)C(C3CC3)C3CC3)cc1CN(CC(C)(F)F)CC2 [compound 160]
21 | ≤ 100 | ≤ 100 | CCn1nccc1C(=O)N[C@H](C(=O)Nc1cc2c(cc1F)-c1c(n[nH]c1C)CCN(CC(C)(F)F)C2)C(C1CC1)C1CC1 [compound 161]
22 | 100 to 500 | ≤ 100 | Cc1[nH]nc2c1-c1cc(F)c(NC(=O)[C@@H](NC(=O)c3ccnn3C(C)C)C(C3CC3)C3CC3)cc1CN(CC(F)(F)F)CC2 [compound 164]
23 | 100 to 500 | ≤ 100 | Cc1[nH]nc2c1-c1cc(F)c(NC(=O)[C@@H](NC(=O)c3ccnn3C(C)C)C(C3CC3)C3CC3)cc1CN(C1CC1)CC2 [compound 165]
